Structures are written as SMILES. Numbered stars: 1 amine (or outer) side, 2 acyl side, 3 side chain; on linkers, the order of the positions; unused ones are H or OH. Bridge positions count the residues as written; N and C are the ends. Side chains are listed from the residue outwards. Peptide text beside a SMILES is read from it. * marks the point of attachment. C20 diacid = O=C(O)CCCCCCCCCCCCCCCCCCC(=O)*; γGlu = O=C(O)[C@H](CCC(=O)[*:2])N[*:1]

Data on one molecule can be found in patent US9023789B2, “Amylin analogs and pharmaceutical compositions thereof” (Novo Nordisk A/S, priority 2012, dated 2015).

In data set [1] the target is T1, human amylin receptor (membranes from Amylin 3(a)/CRE-luc cells) (Homo sapiens, UniProt O60896+P30988).
T1 construct: expressed in transfected cells
T1 sequence (P30988 25-474): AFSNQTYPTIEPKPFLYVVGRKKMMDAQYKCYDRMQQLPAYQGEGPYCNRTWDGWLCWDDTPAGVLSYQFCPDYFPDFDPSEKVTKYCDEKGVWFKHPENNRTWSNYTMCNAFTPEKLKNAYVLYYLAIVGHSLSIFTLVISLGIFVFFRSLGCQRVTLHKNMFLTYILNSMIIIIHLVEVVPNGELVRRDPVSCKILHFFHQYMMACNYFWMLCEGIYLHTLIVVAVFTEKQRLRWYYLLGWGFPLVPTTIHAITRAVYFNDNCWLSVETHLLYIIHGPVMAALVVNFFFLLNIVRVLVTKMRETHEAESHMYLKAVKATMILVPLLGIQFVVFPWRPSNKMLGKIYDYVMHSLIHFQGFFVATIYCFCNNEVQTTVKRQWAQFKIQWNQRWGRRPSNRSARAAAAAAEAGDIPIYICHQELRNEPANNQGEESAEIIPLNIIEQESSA
T1 sequence (O60896 24-148 partner): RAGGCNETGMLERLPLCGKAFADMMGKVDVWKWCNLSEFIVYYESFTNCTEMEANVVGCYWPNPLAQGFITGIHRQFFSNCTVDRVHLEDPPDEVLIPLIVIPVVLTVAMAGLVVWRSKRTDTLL
The data set is described as follows: ASSAY (V) binding to the human amylin receptor (SPA, 125I-rat amylin).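 Note: competition binding of cell membranes (35 ng/µL) mixed with SPA beads in 384-well plates at 40 µL total volume, read by scintillation counting.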

Data set [2] addresses T2, human amylin 3(a) receptor (human calcitonin receptor + RAMP-3) in BHK570 cells (Homo sapiens, UniProt O60896+P30988).
T2 construct: expressed in transfected cells
Put plainly: ASSAY (II)a functional assay, human amylin receptor (CRE luciferase). The format is cell-based. An outline of the steps: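 Cells were seeded and cultured overnight, then incubated with standard or sample for 3 h at 37° C in serum-containing medium at pH 7.4. The medium was then swapped for PBS, LucLite was added for 30 min at room temperature, and luminescence was recorded. Cells were BHK with CRE-luc and calcitonin receptor, ± RAMP-3.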

A short description of data set [3]: ASSAY (III) ThT fibrillation assay for physical stability. The format is physicochemical. An excerpt:
Assay (III)—ThT Fibrillation Assays for the Assessment of Physical Stability of Protein Formulations Low physical stability of a polypeptide may lead to amyloid fibril formation, which is observed as well-ordered, thread-like macromolecular structures in the sample eventually resulting in gel formation. This has traditionally been measured by visual inspection of the sample. However, that kind of measurement is very subjective and depending on the observer. Therefore, the application of a small molecule indicator probe is much more advantageous. Thioflavin T (ThT) is such a probe and has a distinct fluorescence signature when binding to fibrils [Naiki et al. (1989) Anal. […] LeVine (1999) Methods. Enzymol. […], 274-284]. The time course for fibril formation can be described by a sigmoidal curve with the following expression [Nielsen et al. (2001) Biochemistry 40, 6036-6046]; […] Here, F is the ThT fluorescence at the time t. The constant t0 is the time needed to reach 50% of maximum fluorescence. […] Few of those intermediates nucleate to form a template onto which further intermediates may assembly and the fibrillation proceeds. The lag-time corresponds to the interval in which the critical mass of nucleus is built up and the apparent rate constant is the rate with which the fibril itself is formed. Sample Preparation Samples were prepared freshly before each assay. Each sample composition is described in each example. The pH of the sample was adjusted to the desired value using appropriate amounts of concentrated NaOH and HClO4 or HCl. Thioflavin T was added to the samples from a stock solution in H2O to a final concentration of 1 μM. Sample aliquots of 200 μl were placed in a 96 well microtiter plate (Packard OptiPlate™96, white polystyrene). Usually, four or eight replica of each sample (corresponding to one test condition) were placed in one column of wells. The plate was sealed with Scotch Pad (Qiagen). Incubation and Fluorescence Measurement Incubation at given temperature, shaking and measurement of the ThT fluorescence emission were done in a Fluoroskan Ascent FL fluorescence platereader or Varioskan platereader (Thermo Labsystems). The temperature was adjusted to 37° C. The orbital shaking was adjusted to 960 rpm with an amplitude of 1 mm in all the presented data. Fluorescence measurement was done using excitation through a 444 nm filter and measurement of emission through a 485 nm filter. Each run was initiated by incubating the plate at the assay temperature for 10 min. The plate was measured every 20 minutes for a desired period of time. Between each measurement, the plate was shaken and heated as described. Data Handling The measurement points were saved in Microsoft Excel format for further processing and curve drawing and fitting was performed using GraphPad Prism. The background emission from ThT in the absence of fibrils was negligible. The data points are typically a mean of four or eight samples and shown with standard deviation error bars. Only data obtained in the same experiment (i.e. samples on the same plate) are presented in the same graph ensuring a relative measure of fibrillation between experiments. The data set may be fitted to Eq. […] However, since full sigmodial curves in this case are not always achieved during the measurement time, the degree of fibrillation is expressed as ThT fluorescence tabulated as the mean of the samples and shown with the standard deviation at various time points. Measurement of Initial and Final Concentrations The polypeptide concentration in each of the tested formulations were measured both before application in the ThT fibrillation assay (“Initial”) and after completion of the ThT fibrillation (“After ThT assay”). Concentrations were determined by reverse HPLC methods using a pramlintide standard as a reference. Before measurement after completion 150 μl was collected from each of the replica and transferred to an Eppendorf tube. These were centrifuged at 30000 G for 40 mins. […]

Data set [4] deals with T3, human calcitonin (a) receptor in BHK570 cells (Homo sapiens, UniProt P30988).
T3 construct: expressed in transfected cells
T3 sequence (P30988 25-474): T1 sequence (P30988 25-474)
The data set is described as follows: ASSAY (II)a functional assay, human calcitonin receptor (CRE luciferase). The format is cell-based. To be noted: read-out: hCTR funct. EC50. An excerpt:
1. Luciferase Assay Outline
Activation of calcitonin and amylin (coexpression of calcitonin receptor and receptor activity modifying proteins (RAMP)) receptors lead to increased intracellular concentrations of cAMP. Consequently, transcription is activated by promoters containing multiple copies of the cAMP response element (CRE). It is thus possible to measure amylin activity by the use of a CRE luciferase reporter gene introduced into BHK cells also expressing calcitonin or amylin receptors.
2. Construction of Calcitonin (a)- and Amylin 3(a)-Receptor/CRE-Luc Cell Line.
The cell line was further transfected with RAMP-3, using standard methods. This turns the calcitonin receptor into an amylin 3(a) receptor. Methotrexate, Neomycin, and Hygromycin are selection markers for luciferase, the calcitonin receptor, and RAMP-3, respectively.
To perform activity assays, BHK calcitonin (a) receptor- or amylin 3(a)-receptor/CRE-luc cells were seeded in white 96 well culture plates at a density of about 20.000 cells/well. […] After incubation overnight at 37° C. and 5% CO2, the growth medium was replaced by 50 μl/well assay medium (DMEM (without phenol red), Glutamax™, 10% FBS, and 10 mM Hepes, pH 7.4). Further, 50 μl/well of standard or sample in assay buffer were added. After 3 hours incubation at 37° C. and 5% CO2, the assay medium with standard or sample were removed and replaced by 100 μl/well PBS. Further, 100 μl/well LucLite™ was added. The plates were sealed and incubated at room temperature for 30 minutes. Finally, luminescence was measured on a TopCounter (Packard) in SPC (single photon counting) mode.

Data set [5] deals with T4, human calcitonin receptor (Homo sapiens, UniProt P30988).
T4 construct: expressed in transfected cells
T4 sequence (P30988 25-474): T1 sequence (P30988 25-474)
Put plainly: ASSAY (VII) binding to the human calcitonin receptor (SPA, 125I-Calcitonin).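 Note: cell membranes (35 ng/µL) combined with SPA beads in 40 µL of pH 7.4 Hepes buffer, 384-well format, signal counted on a TopCounter instrument.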 To be noted: read-out: hCTR bind IC50.

Regarding `CC[C@H](C)[C@H](NC(=O)[C@H](C)NC(=O)CNC(=O)[C@H](Cc1ccccc1)NC(=O)[C@H](CC(N)=O)NC(=O)[C@@H]1CCCN1C(=O)[C@H](CO)NC(=O)[C@H](CO)NC(=O)[C@H](Cc1c[nH]cn1)NC(=O)[C@H](CCCNC(=N)N)NC(=O)[C@H](CC(C)C)NC(=O)[C@H](Cc1ccccc1)NC(=O)[C@H](CCC(=O)O)NC(=O)[C@H](C)NC(=O)[C@H](CC(C)C)NC(=O)[C@H](CCCNC(=N)N)NC(=O)[C@H](CCC(N)=O)NC(=O)[C@@H](NC(=O)[C@H](C)NC(=O)[C@@H]1CSSC[C@H](NC(=O)[C@@H](N)CCCCNC(=O)CC[C@H](NC(=O)CC[C@H](NC(=O)CCCCCCCCCCCCCCCCCCC(=O)O)C(=O)O)C(=O)O)C(=O)N[C@@H](CC(N)=O)C(=O)N[C@@H]([C@@H](C)O)C(=O)N[C@@H](C)C(=O)N[C@@H]([C@@H](C)O)C(=O)N1)[C@@H](C)O)C(=O)N1CCC[C@H]1C(=O)N[C@@H](CO)C(=O)N[C@@H](CO)C(=O)N[C@H](C(=O)N[C@@H](CC(N)=O)C(=O)N[C@H](C(=O)NCC(=O)N[C@@H](CO)C(=O)N[C@@H](CC(N)=O)C(=O)N[C@H](C(=O)N1CCC[C@H]1C(N)=O)[C@@H](C)O)C(C)C)[C@@H](C)O` [Example 13] (H-K([γGlu-γGlu-C20 diacid])CNTATCATQRLAEFLRHSSPNFGAIPSSTNVGSNTP-NH2; disulfide 2-7; N-terminus assumed), the IC50 (usually the concentration at which inhibition is half-maximal) was determined as 0.264 nM in data set [1] (Table 4, read-out: hAmylin-R bind IC50) and 0.305 nM in data set [5]. Moreover, the “Ratio hCT/hAmylin binding” value in data set [1] (Table 5, selectivity, hCTR bind IC50 / hAmylin-R bind IC50) was found to be 1.2; in data set [1] (Table 7, human binding selectivity, included for comparison) it was 1.2. In addition, the “Ratio hCT/hAmylin funct.” value in data set [2] (hCTR funct. EC50 / hAmylin-R funct. EC50), in data set [2] (hCTR funct. EC50 divided by hAmylin-R funct. EC50), in data set [2] (hCTR funct. EC50 over hAmylin-R funct. EC50) and in data set [2] (human functional selectivity: hCTR funct. EC50 / hAmylin-R funct. EC50) was 2.2 throughout. Moreover, the EC50 (usually the concentration needed to bring the measured effect to its halfway point) in data set [2] (human amylin receptor functional potency, assay (II), read-out: hAmylin-R funct. EC50) stood at 0.213 nM; in data set [4], 0.47 nM. Also, in data set [3], the “ThT pH 4.0 lag time (h)” value stood at 45 h.
